{
  "source": "patent US7521207B2",
  "about": "“Rhesus monkey Nur77” (Merck & Co., Inc., priority 2005, dated 2009)",
  "key": {"[1]": {"system": "Nur77 expression in 22RV1 cells", "assay": "Expression of Nur77 in prostrate cancer cells (FIG. 5)", "format": "cell-based", "conditions": "prostrate cancer cells (22RV1 cells), to various extents"}, "[2]": {"system": "Nur77 expression in the seminal vesicles", "conditions": "orchiectomized (ORX) rats, FIG. 6, to various extents"}},
  "data": [
    {"smiles": "C[C@]12CCC(=O)C[C@@H]1CC[C@@H]1[C@@H]2CC[C@]2(C)[C@@H](O)CC[C@@H]12", "note": "[DHT, dihydrotestosterone]", "values": [
      {"measurement": "expression of Nur77", "setting": "[1]", "value": "can be controlled"},
      {"measurement": "expression of Nur77", "setting": "[2]", "value": "can be modulated"}
    ]}
  ]
}
